Data on 2 molecules can be found in patent US12521371B2, “Modulators of alpha-synuclein” (KAINOS MEDICINE INC., priority 2017, dated 2026).

pEC50, pIC50: −log10 of the molar value.

As a reminder, the inhibition is the share of the control response that was lost under treatment. A lower inhibition goes with a response near the control. Usually pIC50 stands for the negative decadic logarithm of the IC50, by convention in mol/L. The term pEC50 denotes −log10 of the EC50, conventionally taken in molar units.

One data set addresses T1, FAF1-Caspase 8 complex (Homo sapiens, UniProt Q9UNN5).
T1 construct: host or cells: cell extracts
T1 sequence (Q9UNN5 1-650): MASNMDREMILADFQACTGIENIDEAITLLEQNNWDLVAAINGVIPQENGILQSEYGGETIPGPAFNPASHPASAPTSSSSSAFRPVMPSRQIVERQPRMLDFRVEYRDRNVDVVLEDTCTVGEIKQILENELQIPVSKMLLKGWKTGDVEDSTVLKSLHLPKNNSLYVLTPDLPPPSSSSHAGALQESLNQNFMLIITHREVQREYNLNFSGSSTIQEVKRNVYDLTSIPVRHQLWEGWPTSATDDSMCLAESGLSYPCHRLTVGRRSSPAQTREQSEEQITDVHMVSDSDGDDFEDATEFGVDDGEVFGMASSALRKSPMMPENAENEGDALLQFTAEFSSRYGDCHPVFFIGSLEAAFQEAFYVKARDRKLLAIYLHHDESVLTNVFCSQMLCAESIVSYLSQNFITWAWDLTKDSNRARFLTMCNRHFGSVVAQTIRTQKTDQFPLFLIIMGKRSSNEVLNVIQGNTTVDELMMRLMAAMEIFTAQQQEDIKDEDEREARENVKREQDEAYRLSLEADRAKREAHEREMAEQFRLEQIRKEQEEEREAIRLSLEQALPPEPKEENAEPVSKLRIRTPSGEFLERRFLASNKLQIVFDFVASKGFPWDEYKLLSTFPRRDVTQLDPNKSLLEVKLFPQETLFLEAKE
The data set can be described thus: Immunoprecipitation assay of FAF1-Caspase 8 complex formation. It counts as biochemical. The text has this: (§1) FAF1 activates apoptotic stress by various stimuli through activation of caspase cascade and necrosis as described (Yu C et al. 2016). The direct targets of FAF1 are caspase 8 and JNK in these two pathways, respectively. And the step of this activation is forming these complexes followed by activation of the downstream targets.
(§2) The inhibition of the complex formation of FAF1-Caspase 8 and FAF1-JNK by KM-819 is confirmed by the usual immunoprecipitation assays using a caspase8 DED antibody and a JNK antibody, and bound and precipitated FAF1 are measured by Western blot using anti-FAF1 antibody. Clearly, KM-819 inhibits the complex formation effectively, about 80% inhibition at 0.1 uM (FIG. 8).

The next data set concerns the target T2, FAF1-JNK complex (Homo sapiens, UniProt Q9UNN5).
T2 construct: host or cells: cell extracts
T2 sequence (Q9UNN5 1-650): T1 sequence (Q9UNN5 1-650)
The data set can be described thus: Immunoprecipitation assay of FAF1-JNK complex formation. It counts as biochemical.
Description: as §1, §2

Another data set has as its system Caspase 8. Kind of data set: Caspase 8 activation measured as Caspase 3 cleavage, Western blot. It counts as cell-based. The following applies: cleavage of Caspase 3. Here is the method:
(§3) The inhibition of activation of Caspase 8 and JNK by KM-819 is confirmed by assaying the cleavage of the Caspase 8 substrate, Caspase 3, and autophosphorylation of JNK, respectively (FIG. 9). The cells are treated with different concentration of KM-819 as indicated and the levels of cleaved Caspase 3 and autophosphorylated form of JNK are measured by Western blot using anti-Caspase 3 antibody and anti-phospho-JNK antibody, respectively. Clearly, KM-819 inhibits the activity of Caspase 8 and JNK activation (FIG. 9).

The subject of the next data set is JNK. The data set can be described thus: JNK activation measured as JNK autophosphorylation, Western blot. It counts as cell-based. The following applies: autophosphorylation of JNK. The procedure:
as §3
In general terms: A western blot detects proteins with antibodies after separation by electrophoresis.

The test system of the next data set is LC3 and p62. The data set can be described thus: Autophagy promotion: LC3 and p62 levels in SH-SY5Y cells overexpressing FAF1, Western blot. It counts as cell-based. The procedure:
EC50 for autophagy promotion of KM-819 is 1 nM.

In a further data set the test system is alpha-synuclein. Kind of data set: Alpha-synuclein level in SH-SY5Y cells co-transfected with FAF1-Flag and alpha-synuclein-GFP, Western blot. It counts as cell-based. Here is the method: To confirm if FAF1 inhibitor decreases the alpha-synuclein level in cells, SH-SY5Y cells are treated with the FAF1 inhibitor KM-819 (KR-88493, U.S. Pat. No. 7,939,550, Yoo S E et al. 2016). Cells are co-transfected with genes encoding FAF1 tagged with Flag and alpha-synuclein tagged with GFP. The alpha-synuclein level is measured by Western blot of cell extracts using anti-GFP antibody. The FAF1 level is measured by Western blot of cell extracts using anti-Flag antibody. Clearly, the level of alpha-synuclein is decreased upon treatment with FAF1 inhibitor (FIG. 11). […] This is much higher efficacy compared to the apoptosis inhibition activity measured in the prior art, 70% inhibition at 10 uM. Note that FAF1 level itself is not changed by treatment with FAF1 inhibitor.

For data set [1], the system named is human alpha-synuclein mutant A53T. Kind of data set: Alpha-synuclein level in brain tissues of alpha-synuclein A53T transgenic mice after oral KM-819, Western blot. In kind it is in vivo. The following applies: oral 1, 5, 10 mg/kg/day for 9 days, A53T Tg mice.
Data set [2] relates to deoxy-glucose induced hypoxia-mediated apoptosis. Particulars: at 10 uM; U.S. Pat. No. 7,939,550; cited from earlier work.
The test system of the next data set is FAF1. The data set can be described thus: FAF1 siRNA treatment of SH-SY5Y cells cotransfected with the alpha-synuclein gene, Western blot. In kind it is cell-based. The text has this:
FAF1 expression is attenuated by treating SH-SY5Y cells with siRNA (sequence: GUGUUGUGGCACAAACCAU) and reduction in FAF level is confirmed by Western blot of cell extracts using anti-FAF1 antibody. The cells are cotransfected with the alpha-synuclein gene. The level of alpha-synuclein is monitored by Western blot using anti-alpha-synuclein antibody. Clearly, the level of alpha-synuclein is decreased with FAF1 siRNA treatment (FIG. 5).

As for `O=C(CSc1ccc(Br)cc1)Nc1cn(CCc2ccccc2)nc1C(=O)O` [KM-819, 4-[2-(4-bromo-phenylsulfanyl)-acetylamino]-1-phenethyl-1H-pyrazole-3-carboxylic acid], at FAF1-Caspase 8 complex, the inhibition at 0.1 µM is about 80%. At FAF1-JNK complex, this molecule displayed an inhibition at 0.1 µM of about 80%. The pIC50 in the data set on Caspase 8 was 6.14. This molecule also had a pIC50 with JNK of 6.60. Moreover, in the data set on LC3 and p62, the LC3 level entry is on record as “increases” and the p62 protein level entry was “decreases”. Besides, the pEC50 with LC3 and p62 (Homo sapiens, read-out: EC50 for autophagy promotion (modulating LC-3 and p62 levels)) is 9.00. Moreover, the pEC50 with alpha-synuclein (Homo sapiens, SH-SY5Y, as stated in description b51, read-out: EC50 for decreasing the amount of alpha-synuclein in cells) was 7.70. Besides, the inhibition at 10 µM in the data set with alpha-synuclein (Homo sapiens, SH-SY5Y, at 10 uM) is over 95%. Besides, in the data set with alpha-synuclein (Homo sapiens, SH-SY5Y cells, FAF1-Flag and alpha-synuclein-GFP, read-out: IC50 for decrease of alpha-synuclein level), the pIC50 was 7.70. Also, in the data set on alpha-synuclein (SH-SY5Y cells, anti-Flag Western blot), the FAF1 level entry is “not changed”. Further, in data set [1], the “FAF1 level in midbrain” value is listed as “not changed”, the “level of S129 phosphorylated alpha-synuclein in midbrain” value is “decreased”, the “level of alpha-synuclein in cerebellum” value was “decreased” and the “level of alpha-synuclein in cortex” value was “decreased”. Besides, in data set [1], the “level of alpha-synuclein in hippocampus” value was “decreased”, the “level of alpha-synuclein in midbrain” value is reported as “decreased” and the “level of alpha-synuclein in striatum” value is on record as “decreased”. Further, the inhibition of apoptosis in [2] is recorded as 70%.

“FAF1 siRNA: siRNA (sequence: GUGUUGUGGCACAAACCAU) that attenuates FAF1 expression in SH-SY5Y cells (chemistry not given here)”: the level of alpha-synuclein result in the data set with FAF1 (SH-SY5Y cells cotransfected with alpha-synuclein gene) is “decreased”. In addition, the FAF1 expression entry in the data set with FAF1 (SH-SY5Y cells, anti-FAF1 Western blot) is reported as “attenuated”.
